From PMC7402526, “An in vitro quantitative systems pharmacology approach for deconvolving mechanisms of drug-induced, multilineage cytopenias” (PLoS Computational Biology, 2020)

Key:
[1] = tested on: total dead cells (totalDeadCells); test: MLTA, total dead cells concentration-response; format: cell-based; details: Homo sapiens, 144 h, 6 days, normalized to vehicle control, read-out: total_dead normalized cell count
Method in brief: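 Freeze-thawed primary human bone marrow CD34+ cells in SFEM II with cytokine cocktail, drug added day 0, 6 days at 37°C, 5% CO2. Live/dead counts by 17-parameter flow cytometry with DAPI exclusion, bead-normalized, volume-corrected to cells/mL. Normalized per donor to mean of six vehicle wells; 2–7 donors pooled.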

[2] = tested on: monocyte progenitors (monocyte prog); test: MLTA, MonoP: concentration-response and QSP model fit; format: cell-based, human
Method in brief: (§1)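 Freeze-thawed primary human bone marrow CD34+ cells were cultured 6 days in SFEM II with a cytokine cocktail, drug added on day 0. Subsets were counted by 17-parameter flow cytometry with TruCount beads and normalized to vehicle wells. An Emax QSP model (Emax 0–2, L1 regularization) was fitted to these counts.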

[3] = tested on: lymphocyte progenitors (LymP); test: MLTA, LymP: concentration-response and QSP model fit; format: cell-based, human; details: Homo sapiens, Lymphocyte, 144 h
Method in brief: (§2)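 Six-day flow cytometry counts, bead-normalized and expressed relative to the mean of six vehicle wells, underlie each value. Cells were primary human bone marrow CD34+ cells cultured in SFEM II with cytokines promoting multi-lineage differentiation and self-renewal.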

B cells (B-lin) = test: MLTA, B-lin: concentration-response and QSP model fit; format: cell-based, human; details: Homo sapiens, B-cell, 144 h
Method in brief: as §2

[4] = tested on: human bone marrow-derived CD34+ cells differentiated into multiple hematopoietic lineages; test: MLTA, overall effects across hematopoietic lineages; format: cell-based; details: QSP model fit; EmaxT > 1.0 = cell-killing
Procedure: A custom optimized cytokine cocktail was developed using commercially available cytokines (Peprotech, New Jersey) to facilitate simultaneous multi-lineage differentiation and self-renewal of freeze-thawed primary human bone marrow-derived CD34+ cells in SFEM II media (cells and media from StemCell Technologies, Vancouver). Cultures were carried out in ultra-low attachment 96-well plates (Corning, New York) with test article added on day 0 and cultured at 37°C, 85% relative humidity, and 5% CO2 for six days before interrogating drug impact via 17-parameter flow cytometry.
The flow cytometry panel used to define hematopoietic subsets was composed of CD34-PECy7, CD90-PECY5, CD38-AF488, CD371-PE, CD45Ra-BV421, CD14-BV605, CD42b-AF647, CD10-PEDazzle594, CD235a-PerCPCy5.5 (BioLegend, California), CD15-BUV395, CD41a-APCH7, CD71-BV786 (BD Biosciences, California), and DAPI for dead cell exclusion (ThermoFisher, California). In short, Day 6 cells were harvested, FcR-blocked (FcR binding inhibitor, ThermoFisher), surface-stained, then analyzed in a buffer containing TruCount Control Beads using a BD LSR Fortessa SORP fitted with a high-throughput sampler (BD Biosciences, California). Data was analyzed in Diva 6.0.2 and exported to CSV where after all cell data was transformed to cell per mL then normalized on a per-donor basis to untreated control wells to determine drug impact.
Donor material was collected and cultured as described above. The number of replicate donor samples per drug ranged from 2–7 and varied per drug (S1 Table). Drug treatment was added at time 0 and cells were maintained in culture for 6 days. Concentrations tested for each drug compound are contained in S1 Table. Concentrations were selected to span a range that is clinically useful. Following treatment, cell populations were measured using flow cytometry. We extracted cell counts from flow cytometry data, normalized to bead counts, and corrected for well volume.
Each well was normalized to the average of six vehicle control wells. For drugs that were tested across multiple runs of the assay, vehicle-normalized donor data were pooled, and we used the average of these pooled data for further modeling. Normalized data used as model inputs are included in S1 Table.
We implemented drug effects using an Emax model for the drug’s effect on each cell type. The 13 maximum effect parameters (EmaxT,C) are unitless and can vary between 0 and 2 and where a subscript, C, represents one of the previously described 13 cell types. We adapted a traditional Emax model using the equations below. We interpreted EmaxT values less than or equal to one as anti-proliferative, and EmaxT values greater than one as indicating a cell-killing mechanism in addition to anti-proliferation. The relationships for these effects are included in the model using the following equations. Eq 2 describes the drug anti-proliferative effect in the net proliferation rate for a given cell type. Eq 3 describes the cell-killing EmaxCK effect.

granulocytes (Gran-lin) = test: MLTA, Gran: concentration-response and QSP model fit; format: cell-based, human
Method in brief: as §1

MK cells (MK-lin) = test: MLTA, MK: concentration-response and QSP model fit; format: cell-based, human; details: Homo sapiens, 144 h
Method in brief: as §2

monocytes (monocyte-lin) = test: MLTA, Mono: concentration-response and QSP model fit; format: cell-based, human; details: Homo sapiens, Monocyte, 144 h
Method in brief: as §1

[5] = tested on: granulocyte-macrophage progenitor (GMPs); test: MLTA, GMPs: concentration-response and QSP model fit; format: cell-based, human; details: Homo sapiens, 144 h, 6 days, normalized to vehicle control, read-out: GMPs normalized cell count
Method in brief: as §2

[6] = cell-killing component, max(0, EmaxT-1)
[7] = QSP model fit of 6-day MLTA data

CC(=O)O[C@H]1C(=O)[C@@]2(C)[C@H]([C@H](OC(=O)c3ccccc3)[C@]3(O)C[C@H](OC(=O)[C@H](O)[C@@H](NC(=O)c4ccccc4)c4ccccc4)C(C)=C1C3(C)C)[C@]1(OC(C)=O)CO[C@@H]1C[C@@H]2O [paclitaxel]
activity at 0.0002 µM ([1]; dose 0.2 nM): 105%
activity at 0.001 µM ([1]; dose 1 nM): 113%
activity at 0.005 µM ([1]; dose 5 nM): 115%
activity at 0.025 µM ([1]; dose 25 nM): 75.5%
activity at 0.1 µM ([1]; dose 100 nM): 47.5%
activity at 0.5 µM ([1]; dose 500 nM): 40.7%
activity at 2.5 µM ([1]; dose 2500 nM): 46.1%
EC50 ([2]; Homo sapiens, Monocyte, 144 h, QSP model fit of 6-day MLTA data, read-out: EC50MonoP): 24.8 nM
activity at 0.0002 µM ([2]; Homo sapiens, Monocyte, 144 h, dose 0.2 nM, 6 days, normalized to vehicle control, read-out: MonoPs normalized cell count): 102%
activity at 0.001 µM ([2]; Homo sapiens, Monocyte, 144 h, dose 1 nM, 6 days, normalized to vehicle control, read-out: MonoPs normalized cell count): 112%
activity at 0.005 µM ([2]; Homo sapiens, Monocyte, 144 h, dose 5 nM, 6 days, normalized to vehicle control, read-out: MonoPs normalized cell count): 89%
activity at 0.025 µM ([2]; Homo sapiens, Monocyte, 144 h, dose 25 nM, 6 days, normalized to vehicle control, read-out: MonoPs normalized cell count): 0.562%
activity at 0.1 µM ([2]; Homo sapiens, Monocyte, 144 h, dose 100 nM, 6 days, normalized to vehicle control, read-out: MonoPs normalized cell count): 0.118%
activity at 0.5 µM ([2]; Homo sapiens, Monocyte, 144 h, dose 500 nM, 6 days, normalized to vehicle control, read-out: MonoPs normalized cell count): 0.188%
activity at 2.5 µM ([2]; Homo sapiens, Monocyte, 144 h, dose 2500 nM, 6 days, normalized to vehicle control, read-out: MonoPs normalized cell count): 0.286%
Emax ([2]; Homo sapiens, Monocyte, 144 h, parameter from QSP model fitting, read-out: Emax_drug_MonoP): 156%
EmaxCK,MonoP [2, 6]: 0.556 day⁻¹
activity at 0.0002 µM ([3]; dose 0.2 nM, 6 days, normalized to vehicle control, read-out: LymP normalized cell count): 122%
activity at 0.001 µM ([3]; dose 1 nM, 6 days, normalized to vehicle control, read-out: LymP normalized cell count): 143%
activity at 0.005 µM ([3]; dose 5 nM, 6 days, normalized to vehicle control, read-out: LymP normalized cell count): 61.3%
activity at 0.025 µM ([3]; dose 25 nM, 6 days, normalized to vehicle control, read-out: LymP normalized cell count): 9.53%
activity at 0.1 µM ([3]; dose 100 nM, 6 days, normalized to vehicle control, read-out: LymP normalized cell count): 5.4%
activity at 0.5 µM ([3]; dose 500 nM, 6 days, normalized to vehicle control, read-out: LymP normalized cell count): 7.34%
activity at 2.5 µM ([3]; dose 2500 nM, 6 days, normalized to vehicle control, read-out: LymP normalized cell count): 9.6%
Emax ([3]; parameter from QSP model fitting, read-out: Emax_drug_LymP): 0.16%
EC50 (B cells (B-lin); [7]): 36.7 nM
activity at 0.0002 µM (B cells (B-lin); dose 0.2 nM, 6 days, normalized to vehicle control, read-out: B-lin normalized cell count): 102%
activity at 0.001 µM (B cells (B-lin); dose 1 nM, 6 days, normalized to vehicle control, read-out: B-lin normalized cell count): 109%
activity at 0.005 µM (B cells (B-lin); dose 5 nM, 6 days, normalized to vehicle control, read-out: B-lin normalized cell count): 75.9%
activity at 0.025 µM (B cells (B-lin); dose 25 nM, 6 days, normalized to vehicle control, read-out: B-lin normalized cell count): 1.34%
activity at 0.1 µM (B cells (B-lin); dose 100 nM, 6 days, normalized to vehicle control, read-out: B-lin normalized cell count): 0.231%
activity at 0.5 µM (B cells (B-lin); dose 500 nM, 6 days, normalized to vehicle control, read-out: B-lin normalized cell count): 0.372%
activity at 2.5 µM (B cells (B-lin); dose 2500 nM, 6 days, normalized to vehicle control, read-out: B-lin normalized cell count): 0.335%
Emax (B cells (B-lin); parameter from QSP model fitting, read-out: Emax_drug_B): 91.4%
EmaxT effects across cell types (overall statement) [4]: > 1.0
EC50 (granulocytes (Gran-lin); Homo sapiens, 144 h, QSP model fit of 6-day MLTA data): 15.8 nM
activity at 0.0002 µM (granulocytes (Gran-lin); Homo sapiens, 144 h, dose 0.2 nM, 6 days, normalized to vehicle control, read-out: Gran normalized cell count): 104%
activity at 0.001 µM (granulocytes (Gran-lin); Homo sapiens, 144 h, dose 1 nM, 6 days, normalized to vehicle control, read-out: Gran normalized cell count): 122%
activity at 0.005 µM (granulocytes (Gran-lin); Homo sapiens, 144 h, dose 5 nM, 6 days, normalized to vehicle control, read-out: Gran normalized cell count): 92.8%
activity at 0.025 µM (granulocytes (Gran-lin); Homo sapiens, 144 h, dose 25 nM, 6 days, normalized to vehicle control, read-out: Gran normalized cell count): 0.105%
activity at 0.1 µM (granulocytes (Gran-lin); Homo sapiens, 144 h, dose 100 nM, 6 days, normalized to vehicle control, read-out: Gran normalized cell count): 0.0692%
activity at 0.5 µM (granulocytes (Gran-lin); Homo sapiens, 144 h, dose 500 nM, 6 days, normalized to vehicle control, read-out: Gran normalized cell count): 0.0215%
activity at 2.5 µM (granulocytes (Gran-lin); Homo sapiens, 144 h, dose 2500 nM, 6 days, normalized to vehicle control, read-out: Gran normalized cell count): 0.0279%
Emax (granulocytes (Gran-lin); Homo sapiens, 144 h, parameter from QSP model fitting, read-out: Emax_drug_Gran): 236%
EmaxCK,Gran (granulocytes (Gran-lin); [6]): 1.360 day⁻¹
EC50 (MK cells (MK-lin); [7]): 51.7 nM
activity at 0.0002 µM (MK cells (MK-lin); dose 0.2 nM, 6 days, normalized to vehicle control, read-out: MK normalized cell count): 108%
activity at 0.001 µM (MK cells (MK-lin); dose 1 nM, 6 days, normalized to vehicle control, read-out: MK normalized cell count): 110%
activity at 0.005 µM (MK cells (MK-lin); dose 5 nM, 6 days, normalized to vehicle control, read-out: MK normalized cell count): 111%
activity at 0.025 µM (MK cells (MK-lin); dose 25 nM, 6 days, normalized to vehicle control, read-out: MK normalized cell count): 9.64%
activity at 0.1 µM (MK cells (MK-lin); dose 100 nM, 6 days, normalized to vehicle control, read-out: MK normalized cell count): 0.962%
activity at 0.5 µM (MK cells (MK-lin); dose 500 nM, 6 days, normalized to vehicle control, read-out: MK normalized cell count): 0.754%
activity at 2.5 µM (MK cells (MK-lin); dose 2500 nM, 6 days, normalized to vehicle control, read-out: MK normalized cell count): 0.792%
Emax (MK cells (MK-lin); parameter from QSP model fitting, read-out: Emax_drug_MK): 25.9%
EC50 (monocytes (monocyte-lin); [7]): 30 nM
activity at 0.0002 µM (monocytes (monocyte-lin); dose 0.2 nM, 6 days, normalized to vehicle control, read-out: Mon normalized cell count): 90.9%
activity at 0.001 µM (monocytes (monocyte-lin); dose 1 nM, 6 days, normalized to vehicle control, read-out: Mon normalized cell count): 93.8%
activity at 0.005 µM (monocytes (monocyte-lin); dose 5 nM, 6 days, normalized to vehicle control, read-out: Mon normalized cell count): 77%
activity at 0.025 µM (monocytes (monocyte-lin); dose 25 nM, 6 days, normalized to vehicle control, read-out: Mon normalized cell count): 0.638%
activity at 0.1 µM (monocytes (monocyte-lin); dose 100 nM, 6 days, normalized to vehicle control, read-out: Mon normalized cell count): 0.419%
activity at 0.5 µM (monocytes (monocyte-lin); dose 500 nM, 6 days, normalized to vehicle control, read-out: Mon normalized cell count): 1.04%
activity at 2.5 µM (monocytes (monocyte-lin); dose 2500 nM, 6 days, normalized to vehicle control, read-out: Mon normalized cell count): 0.347%
Emax (monocytes (monocyte-lin); parameter from QSP model fitting, read-out: Emax_drug_Mono): 25.8%
activity at 0.0002 µM ([5]; dose 0.2 nM): 126%
activity at 0.001 µM ([5]; dose 1 nM): 119%
activity at 0.005 µM ([5]; dose 5 nM): 109%
activity at 0.025 µM ([5]; dose 25 nM): 3.34%
activity at 0.1 µM ([5]; dose 100 nM): 0.101%
activity at 0.5 µM ([5]; dose 500 nM): 0.687%
activity at 2.5 µM ([5]; dose 2500 nM): 0.327%
